Measured values published in PubChem BioAssay AID1259407 (Chemical Carcinogenesis Research Information System (CCRIS), 2018).
The source made the active and inactive calls. How the calls were made is not given here.

System: CCRIS mutagenicity, Ames/micronucleus/aberration tests
Test: CCRIS mutagenicity studies
[1] = Test System: AMES SALMONELLA TYPHIMURIUM, Strain/Indicator: TA98, Metabolic Activation: NONE, Method: STANDARD PLATE
[2] = Test System: AMES SALMONELLA TYPHIMURIUM, Strain/Indicator: TA100, Metabolic Activation: NONE, Method: STANDARD PLATE
[3] = Test System: AMES SALMONELLA TYPHIMURIUM, Strain/Indicator: TA100, Metabolic Activation: S-9, Method: STANDARD PLATE
[4] = Test System: AMES SALMONELLA TYPHIMURIUM, Strain/Indicator: TA98, Metabolic Activation: NONE, Method: PREINCUBATION
[5] = Test System: AMES SALMONELLA TYPHIMURIUM, Strain/Indicator: TA98, Metabolic Activation: RAT, LIVER, S-9, KANECHLOR 500, Method: PREINCUBATION
[6] = Test System: AMES SALMONELLA TYPHIMURIUM, Strain/Indicator: TA100, Metabolic Activation: NONE, Method: PREINCUBATION
[7] = Test System: AMES SALMONELLA TYPHIMURIUM, Strain/Indicator: TA100, Metabolic Activation: RAT, LIVER, S-9, KANECHLOR 500, Method: PREINCUBATION
[8] = Test System: AMES SALMONELLA TYPHIMURIUM, Strain/Indicator: TA1535, Metabolic Activation: NONE, Method: PREINCUBATION

O=[N+]([O-])c1cc2c(cc1Cl)Oc1cc(Cl)c(Cl)cc1O2
mutagenic call [1]: active; positive | mutagenic call (Test System: AMES SALMONELLA TYPHIMURIUM, Strain/Indicator: TA98, Metabolic Activation: RAT, LIVER, S-9, AROCLOR, Method: STANDARD PLATE): active; positive | mutagenic call [2]: active; positive | mutagenic call (Test System: AMES SALMONELLA TYPHIMURIUM, Strain/Indicator: TA100, Metabolic Activation: RAT, LIVER, S-9, AROCLOR, Method: STANDARD PLATE): active; positive

CN(C)c1ccc(C(c2ccccc2)c2ccc(N(C)C)cc2)cc1
mutagenic call (End Point: IN VIVO MICRONUCLEUS, Test System: PERIPHERAL BLOOD ERYTHROCYTES, Species: MOUSE, Strain/Sex: BIG BLUE B6C3F1/FEMALE, Route: DIET): inactive; negative | mutagenic call (Test System: AMES SALMONELLA TYPHIMURIUM, Strain/Indicator: TA97A, Metabolic Activation: NONE, Method: STANDARD PLATE): inactive; negative | mutagenic call (Test System: AMES SALMONELLA TYPHIMURIUM, Strain/Indicator: TA97A, Metabolic Activation: RAT LIVER S-9, 3-METHYLCHOLANTHRENE, PHENOBARBITAL, Method: STANDARD PLATE): inactive; negative | mutagenic call [1]: inactive; negative | mutagenic call (Test System: AMES SALMONELLA TYPHIMURIUM, Strain/Indicator: TA98, Metabolic Activation: RAT LIVER S-9, 3-METHYLCHOLANTHRENE, PHENOBARBITAL, Method: STANDARD PLATE): inactive; negative | mutagenic call [2]: inactive; negative | mutagenic call (Test System: AMES SALMONELLA TYPHIMURIUM, Strain/Indicator: TA100, Metabolic Activation: RAT LIVER S-9, 3-METHYLCHOLANTHRENE, PHENOBARBITAL, Method: STANDARD PLATE): inactive; negative | mutagenic call (Test System: AMES SALMONELLA TYPHIMURIUM, Strain/Indicator: TA102, Metabolic Activation: NONE, Method: STANDARD PLATE): inactive; negative | mutagenic call (Test System: AMES SALMONELLA TYPHIMURIUM, Strain/Indicator: TA102, Metabolic Activation: RAT LIVER S-9, 3-METHYLCHOLANTHRENE, PHENOBARBITAL, Method: STANDARD PLATE): inactive; negative | mutagenic call (Test System: CHO/HGPRT, Strain/Indicator: CHO-K1, Metabolic Activation: NONE, Method: STANDARD PLATE): inactive; negative | mutagenic call (Test System: CHO/HGPRT, Strain/Indicator: CHO-K1, Metabolic Activation: RAT LIVER S-9, 3-METHYLCHOLANTHRENE, PHENOBARBITAL, Method: STANDARD PLATE): inactive; negative

CNN(C)c1ccn([C@@H]2O[C@H](CO)[C@@H](O)[C@H]2O)c(=O)n1
mutagenic call (Test System: CHINESE HAMSTER V-79, Strain/Indicator: V-79/6-THIOGUANINE, Metabolic Activation: NONE, Method: REPLATING): inactive; negative

COc1c(N2C[C@@H]3CCCN[C@@H]3C2)c(F)cc2c(=O)c(C(=O)O)cn(C3CC3)c12
mutagenic call (Test System: CHINESE HAMSTER V-79, Strain/Indicator: V-79 (HGPRT)/6-THIOGUANINE, Metabolic Activation: NONE, Method: STANDARD PLATE): inactive; negative

O=C(N=c1sn(C(=O)c2ccc([N+](=O)[O-])cc2)c2ccccc12)c1ccc([N+](=O)[O-])cc1
mutagenic call [3]: active; positive

O=[N+]([O-])c1ccc(F)c([N+](=O)[O-])c1
mutagenic call (Test System: AMES SALMONELLA TYPHIMURIUM, Strain/Indicator: TA98(1,8-DNP6), Metabolic Activation: NONE, Method: PREINCUBATION): active; positive | mutagenic call (Test System: AMES SALMONELLA TYPHIMURIUM, Strain/Indicator: TA98(NR), Metabolic Activation: NONE, Method: PREINCUBATION): active; positive | mutagenic call [4]: active; positive | mutagenic call [5]: active; positive | mutagenic call (Test System: AMES SALMONELLA TYPHIMURIUM, Strain/Indicator: TA100(NR), Metabolic Activation: NONE, Method: PREINCUBATION): active; positive | mutagenic call (Test System: AMES SALMONELLA TYPHIMURIUM, Strain/Indicator: TA100/GSH-, Metabolic Activation: NONE, Method: PREINCUBATION): active; positive | mutagenic call [6]: active; positive | mutagenic call [7]: active; positive

O=Nc1ccc2ccc3c4c(cc5ccc1c2c53)CCCC4
mutagenic call [1]: active; positive

CCCCCCCCCC[N+](C)(C)Cc1ccccc1
mutagenic call (Test System: AMES SALMONELLA TYPHIMURIUM, Strain/Indicator: TA97, Metabolic Activation: HAMSTER, LIVER, S-9, AROCLOR 1254 (10 OR 30%), Method: PREINCUBATION): inactive; negative | mutagenic call (Test System: AMES SALMONELLA TYPHIMURIUM, Strain/Indicator: TA97, Metabolic Activation: NONE, Method: PREINCUBATION): inactive; negative | mutagenic call (Test System: AMES SALMONELLA TYPHIMURIUM, Strain/Indicator: TA97, Metabolic Activation: RAT, LIVER, S-9, AROCLOR 1254 (10 OR 30%), Method: PREINCUBATION): inactive; negative | mutagenic call (Test System: AMES SALMONELLA TYPHIMURIUM, Strain/Indicator: TA98, Metabolic Activation: HAMSTER, LIVER, S-9, AROCLOR 1254 (10 OR 30%), Method: PREINCUBATION): inactive; negative | mutagenic call [4]: inactive; negative | mutagenic call (Test System: AMES SALMONELLA TYPHIMURIUM, Strain/Indicator: TA98, Metabolic Activation: RAT, LIVER, S-9, AROCLOR 1254 (10 OR 30%), Method: PREINCUBATION): inactive; negative | mutagenic call (Test System: AMES SALMONELLA TYPHIMURIUM, Strain/Indicator: TA100, Metabolic Activation: HAMSTER, LIVER, S-9, AROCLOR 1254 (10 OR 30%), Method: PREINCUBATION): inactive; negative | mutagenic call [6]: inactive; negative | mutagenic call (Test System: AMES SALMONELLA TYPHIMURIUM, Strain/Indicator: TA100, Metabolic Activation: RAT, LIVER, S-9, AROCLOR 1254 (10 OR 30%), Method: PREINCUBATION): inactive; negative | mutagenic call (Test System: AMES SALMONELLA TYPHIMURIUM, Strain/Indicator: TA1535, Metabolic Activation: HAMSTER, LIVER, S-9, AROCLOR 1254 (10 OR 30%), Method: PREINCUBATION): inactive; negative | mutagenic call [8]: inactive; negative | mutagenic call (Test System: AMES SALMONELLA TYPHIMURIUM, Strain/Indicator: TA1535, Metabolic Activation: RAT, LIVER, S-9, AROCLOR 1254 (10 OR 30%), Method: PREINCUBATION): inactive; negative

Nc1nnc(/C(=C/c2ccc([N+](=O)[O-])o2)c2ccco2)o1
mutagenic call (Test System: UDS HUMAN FIBROBLASTS, Strain/Indicator: THY INCORP (NON-S-PHASE), Metabolic Activation: NONE, Method: AUTORADIOGRAPHY): active; positive

Nc1cc(Cl)c(N)c(Cl)c1
mutagenic call (End Point: IN VITRO CHROMOSOMAL ABERRATIONS, Test System: CHO CELLS, Metabolic Activation: NONE): active; positive; weak response

CCOP(=S)(OCC)Oc1nc(Cl)n(C(C)C)n1
mutagenic call [4]: active; positive | mutagenic call (Test System: AMES SALMONELLA TYPHIMURIUM, Strain/Indicator: TA98, Metabolic Activation: RAT, LIVER, S-9, AROCLOR 1254, Method: PREINCUBATION): active; positive

CS(=O)(=O)OCCCNCCCOS(C)(=O)=O
mutagenic call (Test System: AMES SALMONELLA TYPHIMURIUM, Strain/Indicator: TA98, Metabolic Activation: S-9, Method: STANDARD PLATE): inactive; negative | mutagenic call [3]: inactive; negative | mutagenic call (Test System: AMES SALMONELLA TYPHIMURIUM, Strain/Indicator: TA102, Metabolic Activation: S-9, Method: STANDARD PLATE): inactive; negative | mutagenic call (Test System: AMES SALMONELLA TYPHIMURIUM, Strain/Indicator: TA1537, Metabolic Activation: S-9, Method: STANDARD PLATE): active; positive | mutagenic call (Test System: E. COLI, Strain/Indicator: WP2 (HCR), Metabolic Activation: S-9, Method: STANDARD PLATE): active; positive

CC(=O)Nc1ccnc2ccccc12
mutagenic call [4]: inactive; negative | mutagenic call [5]: inactive; negative | mutagenic call [6]: inactive; negative | mutagenic call [7]: inactive; negative

CCN(CC)CCCNC(=O)C(=O)N/N=C/c1ccc([N+](=O)[O-])o1
mutagenic call (Test System: E. COLI, Strain/Indicator: WP2 UVRA, Metabolic Activation: NONE, Method: STANDARD PLATE): active; positive

O=[N+]([O-])c1ccc(-c2nc3n(c2[N+](=O)[O-])CCS3)cc1
mutagenic call [1]: active; positive | mutagenic call [2]: active; positive | mutagenic call (Test System: AMES SALMONELLA TYPHIMURIUM, Strain/Indicator: TA1535, Metabolic Activation: NONE, Method: STANDARD PLATE): inactive; negative | mutagenic call (Test System: AMES SALMONELLA TYPHIMURIUM, Strain/Indicator: TA1537, Metabolic Activation: NONE, Method: STANDARD PLATE): inactive; negative | mutagenic call (Test System: AMES SALMONELLA TYPHIMURIUM, Strain/Indicator: TA1538, Metabolic Activation: NONE, Method: STANDARD PLATE): active; positive

CCOC(=O)N(CCC=O)N=O
mutagenic call [6]: active; positive | mutagenic call (Test System: AMES SALMONELLA TYPHIMURIUM, Strain/Indicator: TA104, Metabolic Activation: NONE, Method: PREINCUBATION): active; positive | mutagenic call [8]: active; positive
